One assay deals with PI3K Gamma (Homo sapiens, UniProt P48736). Briefly: PI3K Gamma enzyme inhibition. Format: biochemical.
The test system of assay [1] is IFNγ. Briefly: Con A+PMA induced IFNγ in PBMC. In kind it is cell-based. To be noted: 10 nM alone. On the procedure:
PBMC from whole blood were isolated by density gradient using Histopaque and incubated with the desired concentration of inhibitor for 15 minutes. Cytokine release was induced with the addition of Concanavalin A (25 μg/ml)+Phorbol Myristate Acetate (50 ng/ml). Supernatant was collected after 20 hours and IFNγ was estimated using an ELISA kit.

Assay [2] has as its system IFNγ. The assay can be described thus: Con A+PMA induced IFNγ in human whole blood (HWB). Format: cell-based. To be noted: 10 nM alone. On the procedure:
Freshly collected HWB was diluted with media and incubated with the desired concentration of inhibitor for 15 minutes. Cytokine release was induced with the addition of Concanavalin A (25 μg/ml)+Phorbol Myristate Acetate (50 ng/ml). The supernatant was collected after 20 hours and IFNγ was estimated using an ELISA kit.

The test system of assay [3] is TNFα. The assay can be described thus: LPS induced TNFα in human whole blood (HWB). In kind it is cell-based. To be noted: 100 nM alone. On the procedure: Freshly collected HWB was diluted with media and incubated with the desired concentration of inhibitor for 15 min. LPS (1 μg/ml) was added and then incubated for 24 hours. The supernatant was collected and TNFα estimated using an eBioscience TNFα ELISA kit.
Freshly collected HWB was diluted with media and incubated with the desired concentration of inhibitor for 15 minutes. LPS (1 μg/ml) was added and then incubated for 24 hours. The supernatant was collected and TNFα estimated using an eBioscience TNFα ELISA kit.

Assay [4] has as its system TNFα. Briefly: LPS induced TNFα in THP-1 (human monocyte) cells. To be noted: compound alone; THP-1 cells, LPS 1 μg/ml. Format: cell-based. How it is done: THP-1 represents a monocytic cell line that has elevated endogenous pAKT levels and secretes copious amounts of TNFα upon induction by LPS. Cells were plated at 150,000 cells per well. 10 nM of Compound A1 (final concentration) was added 15 minutes prior to the addition of roflumilast. LPS (1 μg/ml) was added and then incubated for 4 hours. The supernatant was collected after 20 hours and TNFα was estimated using an ELISA kit.

The test system of a further assay is neutrophil infiltration. Briefly: Lipopolysaccharide induced pulmonary neutrophilia in female Wistar rats. In kind it is in vivo. How it is done: After the quarantine period, fasted animals were randomized and divided into groups depending on their body weights. Test compound was prepared as a suspension in a vehicle consisting of 0.5% methylcellulose in which Tween 80 was used as a suspending agent. Compounds or vehicle were administered by oral gavage in a volume of 10 mL/kg. Animals were anaesthetized with ketamine and LPS solution was administered intratracheally 30 minutes after compound administration at a dose of 1 mg/kg. Six hours after LPS instillation, animals were exsanguinated under anaesthesia, and the trachea was cannulated, and lungs were lavaged with 5-ml aliquots of heparinised PBS (1 unit/ml) four times through the tracheal cannula (total volume 20 ml). Bronchioalveolar (BAL) fluid was stored at 2-8° C. until assayed for total cell and differential leukocyte count. BAL fluid was centrifuged (500×g for 10 min) and the resulting cell pellet was resuspended in 0.5 ml of heparinised saline. The total numbers of white blood cells were determined in BAL fluid or blood using a cell counter and were adjusted to 1×10^6 cell/ml. Differential cell count was calculated manually. One hundred microliters of the cell suspension was centrifuged using cytospin 3 to prepare a cell smear. The cell smear was stained with a blood staining solution for differentiation and slides were microscopically observed to identify eosinophils according to their morphological characteristics. The number of each cell type among 300 white blood cells in the cell smear was determined and expressed as a percentage of total cells. The number of eosinophil in BALF was calculated.
The procedure for LPS induced pulmonary neutrophilia in female Wistar rats as described in Example 1 was performed with compound A1 and roflumilast.

Another assay concerns the target PI3K Delta (Homo sapiens, UniProt O00329). Briefly: PI3K Delta enzyme inhibition. Format: biochemical.
The test system of assay [5] is macrophage and neutrophil infiltration. The assay can be described thus: Acute cigarette smoke induced cell infiltration in male Balb/c mice. In kind it is in vivo. To be noted: acute CS; for ED50: oral. On the procedure:
Animals were acclimatized for seven days prior to the start of the experiment. Animals were randomly distributed to various groups based on their body weights. On day 1, mice were administered by test compound or vehicle by the oral route and after 30 mins test compound administration animals were placed in a whole body exposure box. The mice were exposed to the mainstream smoke of 6 cigarettes from day 1 to day 4. Exposure to the smoke of each cigarette lasted for 10 min (cigarettes were completely burned in the first two minutes and followed by an air flow with animal ventilator) followed by exposure for the next 20 min with fresh room air. After every second cigarette an additional break of 20 min with exposure to fresh room air was conducted. Control animals were exposed to the room air chamber. From day 1 to day 4 animals were administered test compound by the oral route. On day 5, 24 hours after the last cigarette smoke (CS) exposure. animals were exsanguinated under anaesthesia, and the trachea was cannulated and the lungs were lavaged with 0.5 ml aliquots of heparinised PBS (1 unit/ml) four times through a tracheal cannula (total volume 2 ml). Bronchioalveolar (BAL) collected was stored at 2-8° C. until assayed for total cell and differential leukocyte count. BAL fluid was centrifuged (500×g for 10 min) and the resulting cell pellet was resuspended in 0.5 ml of heparinised saline. The total number of white blood cells was determined in BAL fluid and blood using a blood cell counter and adjusted to 1×10^6 cell/ml. Differential cell count was calculated manually. Forty microliters of the cell suspension was centrifuged using cytospin 3 to prepare a cell smear. The cell smear was stained with a blood staining solution for differentiation and microscopically observed by identifying each cell according to its morphological characteristics. The number of each cell type among 300 white blood cells in the cell smear were determined and expressed as a percentage, and the number of neutrophils and macrophages in each BAL fluid were calculated.
The procedure for acute cigarette smoke induced cell infiltration in male Balb/c mice described in Example 1 was performed with Compound A1 and roflumilast

Assay [6] has as its system TNFα. Briefly: LPS induced TNFα in MH-S (mouse alveolar macrophage) cells. Format: cell-based. How it is done:
MH-S represents a mouse alveolar macrophage cell line that secretes copious amounts of TNFα upon induction by LPS. Cells were plated at 150,000 cells per well. 10 nM of Compound A1 (final concentration) was added 15 minutes prior to the addition of roflumilast. LPS (1 μg/ml) was added and then incubated for 4 hours. The supernatant was collected after 20 hours and TNFα was estimated using an ELISA kit.

The record followed here is patent publication US10413532B2, “Pharmaceutical compositions containing a PDE4 inhibitor and a PI3 delta or dual PI3 delta-gamma kinase inhibitor” (Rhizen Pharmaceuticals SA, priority 2012, dated 2019).

The structures appear in SMILES notation. Like-named read-outs stand apart in the source and are kept apart here. A value given as a limit tells only on which side of the number the result lay.

Sequence of PI3K Delta (O00329 whole entry, species assumed): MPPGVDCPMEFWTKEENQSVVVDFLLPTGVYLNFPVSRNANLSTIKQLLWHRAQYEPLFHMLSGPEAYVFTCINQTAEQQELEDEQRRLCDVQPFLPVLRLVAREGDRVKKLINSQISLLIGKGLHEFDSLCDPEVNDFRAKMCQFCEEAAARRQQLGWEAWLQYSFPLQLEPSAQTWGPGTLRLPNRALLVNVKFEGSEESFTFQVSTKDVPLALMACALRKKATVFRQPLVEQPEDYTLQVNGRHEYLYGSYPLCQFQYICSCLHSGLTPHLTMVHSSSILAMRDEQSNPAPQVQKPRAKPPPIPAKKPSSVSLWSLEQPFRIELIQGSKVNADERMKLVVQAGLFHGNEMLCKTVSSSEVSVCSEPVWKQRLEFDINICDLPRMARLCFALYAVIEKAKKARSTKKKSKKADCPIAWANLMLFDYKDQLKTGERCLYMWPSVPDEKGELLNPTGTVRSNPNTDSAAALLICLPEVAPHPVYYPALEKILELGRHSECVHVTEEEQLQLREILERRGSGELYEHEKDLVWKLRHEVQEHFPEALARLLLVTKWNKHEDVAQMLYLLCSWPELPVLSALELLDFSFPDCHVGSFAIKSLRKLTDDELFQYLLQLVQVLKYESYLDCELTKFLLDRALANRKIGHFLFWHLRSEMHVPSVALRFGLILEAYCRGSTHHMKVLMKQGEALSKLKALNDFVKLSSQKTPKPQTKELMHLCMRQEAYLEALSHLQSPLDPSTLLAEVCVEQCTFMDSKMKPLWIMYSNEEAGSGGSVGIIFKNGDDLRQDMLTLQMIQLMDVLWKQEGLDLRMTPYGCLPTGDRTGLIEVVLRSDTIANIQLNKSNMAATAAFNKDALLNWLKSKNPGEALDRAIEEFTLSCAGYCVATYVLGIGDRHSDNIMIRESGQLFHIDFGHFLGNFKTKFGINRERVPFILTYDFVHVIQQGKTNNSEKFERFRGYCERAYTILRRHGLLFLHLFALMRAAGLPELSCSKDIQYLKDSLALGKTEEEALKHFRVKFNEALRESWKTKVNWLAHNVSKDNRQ
Sequence of PI3K Delta (P27986 whole entry partner, species assumed): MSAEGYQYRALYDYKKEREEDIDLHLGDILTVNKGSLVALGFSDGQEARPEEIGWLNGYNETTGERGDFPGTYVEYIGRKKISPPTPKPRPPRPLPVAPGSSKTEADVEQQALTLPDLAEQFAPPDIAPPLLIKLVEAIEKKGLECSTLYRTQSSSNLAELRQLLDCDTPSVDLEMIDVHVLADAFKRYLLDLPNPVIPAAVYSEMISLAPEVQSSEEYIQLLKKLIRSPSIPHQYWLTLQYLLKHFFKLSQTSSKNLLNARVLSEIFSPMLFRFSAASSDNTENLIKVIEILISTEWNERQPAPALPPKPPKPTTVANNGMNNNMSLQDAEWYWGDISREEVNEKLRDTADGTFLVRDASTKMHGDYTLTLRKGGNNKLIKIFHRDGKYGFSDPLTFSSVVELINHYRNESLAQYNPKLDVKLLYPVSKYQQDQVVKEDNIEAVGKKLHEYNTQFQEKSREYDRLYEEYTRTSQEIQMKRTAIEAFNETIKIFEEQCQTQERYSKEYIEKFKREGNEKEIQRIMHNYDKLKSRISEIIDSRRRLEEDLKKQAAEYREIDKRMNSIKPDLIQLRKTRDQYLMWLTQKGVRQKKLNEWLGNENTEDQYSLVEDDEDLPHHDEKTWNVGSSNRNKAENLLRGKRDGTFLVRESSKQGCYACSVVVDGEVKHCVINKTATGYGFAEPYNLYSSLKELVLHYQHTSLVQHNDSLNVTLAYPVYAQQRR
Sequence of PI3K Gamma (P48736 whole entry, species assumed): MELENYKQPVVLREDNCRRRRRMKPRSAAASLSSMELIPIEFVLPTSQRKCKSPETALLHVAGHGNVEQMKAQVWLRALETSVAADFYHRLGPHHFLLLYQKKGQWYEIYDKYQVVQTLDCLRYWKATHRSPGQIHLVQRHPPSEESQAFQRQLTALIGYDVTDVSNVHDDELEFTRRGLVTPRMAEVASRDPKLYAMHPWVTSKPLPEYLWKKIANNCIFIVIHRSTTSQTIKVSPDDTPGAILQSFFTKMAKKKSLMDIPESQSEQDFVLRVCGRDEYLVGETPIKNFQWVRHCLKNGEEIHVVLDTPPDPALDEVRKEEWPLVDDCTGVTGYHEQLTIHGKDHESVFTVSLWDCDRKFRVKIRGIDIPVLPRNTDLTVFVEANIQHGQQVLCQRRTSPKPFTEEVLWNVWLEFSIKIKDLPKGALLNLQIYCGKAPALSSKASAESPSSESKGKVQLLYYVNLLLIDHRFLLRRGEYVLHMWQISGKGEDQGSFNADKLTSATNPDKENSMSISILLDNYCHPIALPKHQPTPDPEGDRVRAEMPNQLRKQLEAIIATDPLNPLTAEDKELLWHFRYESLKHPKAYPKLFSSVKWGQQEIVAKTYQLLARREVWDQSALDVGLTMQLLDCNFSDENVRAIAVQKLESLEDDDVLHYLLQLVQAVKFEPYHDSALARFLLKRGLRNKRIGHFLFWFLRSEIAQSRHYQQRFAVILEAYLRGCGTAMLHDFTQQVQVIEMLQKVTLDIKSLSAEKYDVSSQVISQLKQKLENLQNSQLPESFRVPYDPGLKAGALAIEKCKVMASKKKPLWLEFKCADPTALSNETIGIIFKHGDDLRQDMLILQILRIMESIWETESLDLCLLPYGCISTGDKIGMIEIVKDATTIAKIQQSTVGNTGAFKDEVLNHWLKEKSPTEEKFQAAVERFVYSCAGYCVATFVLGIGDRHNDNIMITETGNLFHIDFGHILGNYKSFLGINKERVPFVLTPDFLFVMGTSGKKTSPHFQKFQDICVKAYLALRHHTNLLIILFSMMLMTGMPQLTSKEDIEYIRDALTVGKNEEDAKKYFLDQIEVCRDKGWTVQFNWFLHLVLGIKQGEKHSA

In the case of `CC(C)Oc1ccc(-c2nn(C(C)c3oc4cccc(F)c4c(=O)c3-c3cccc(F)c3)c3ncnc(N)c23)cc1F` (single isomer, unassigned; (+)) [Compound A1, (+)-2-(1-(4-amino-3-(3-fluoro-4-isopropoxyphenyl)-1H-pyrazolo[3,4-d]pyrimidin-1-yl)ethyl)-5-fluoro-3-(3-fluorophenyl)-4H-chromen-4-one], the IC50 against PI3K Gamma and against PI3K Delta was below 0.04 µM in each case. Also, the “effect on IFNγ secretion” value with IFNγ [1] and in the assay on IFNγ [2] was “did not affect IFNγ secretion” in each case. Moreover, the “effect on TNFα secretion” value with TNFα [3] is listed as “did not affect TNFα secretion”. Moreover, the “inhibition of TNFα” value is “dose-dependently inhibited TNFα” in the assay on TNFα [4] and “dose-dependently inhibited TNFα” in the assay on TNFα [6] (compound alone, LPS 1 μg/ml). The “percent inhibition of neutrophil infiltration” value was determined as 17.83% in the assay on neutrophil infiltration (0.1 mg/kg oral, rat BAL fluid 6 h after LPS); 51.76% in the assay on neutrophil infiltration (1 mg/kg oral, dose-response study, rat); 70.21% in the assay on neutrophil infiltration (10 mg/kg oral, rat); 14.76% in [5] (0.1 mg/kg oral, mouse); 51.31% in [5] (0.3 mg/kg oral, mouse); 112.83% in assay [5] (1 mg/kg oral, mouse). Further, the ED50 turned out to be 1.3 mg/kg in the assay with neutrophil infiltration (Neutrophil, oral, rat LPS pulmonary neutrophilia, read-out: 50% inhibition (ED50) dose, neutrophil infiltration); 0.2 mg/kg in assay [5] (Macrophage, mouse, read-out: 50% inhibition (ED50) dose, macrophage infiltration); 0.26 mg/kg in assay [5] (Neutrophil, mouse, read-out: dose of 50% inhibition (ED50) of neutrophil infiltration). Also, the “inhibition of neutrophil infiltration” value in the assay on neutrophil infiltration (combination study, alone at 1.3 mg/kg, rat) is listed as 43.02%; in [5] (combination study, alone at 0.25 mg/kg, mouse), 36.69%. Besides, the “percent inhibition of macrophage infiltration” value is 20.60% in assay [5] (0.1 mg/kg oral, mouse BAL); 75.19% in assay [5] (0.3 mg/kg oral, dose-response study, mouse); 93.11% in [5] (1 mg/kg oral, mouse). The “inhibition of macrophage infiltration” value in assay [5] (combination study, alone at 0.3 mg/kg, mouse) stood at 31.33%. Moreover, the “decrease in TNFα secretion” value in the assay on TNFα [6] (15 nM alone) is around 10%.
